Measurements as given in ChEMBL document CHEMBL1154528, “Discovery of a novel series of quinoxalines as inhibitors of c-Met kinase” (Bioorg Med Chem Lett, 2009).

What was measured:
[1] = Inhibition of Flt at 10 uM; design: scale not given: the % may be the effect or the level left
[2] = molecular target: Vascular endothelial growth factor receptor 2 (Homo sapiens) (UniProt P35968); test: Inhibition of KDR at 10 uM; design: scale not given: the % may be the effect or the level left
Sequence of Vascular endothelial growth factor receptor 2 (Homo sapiens) (P35968 whole entry): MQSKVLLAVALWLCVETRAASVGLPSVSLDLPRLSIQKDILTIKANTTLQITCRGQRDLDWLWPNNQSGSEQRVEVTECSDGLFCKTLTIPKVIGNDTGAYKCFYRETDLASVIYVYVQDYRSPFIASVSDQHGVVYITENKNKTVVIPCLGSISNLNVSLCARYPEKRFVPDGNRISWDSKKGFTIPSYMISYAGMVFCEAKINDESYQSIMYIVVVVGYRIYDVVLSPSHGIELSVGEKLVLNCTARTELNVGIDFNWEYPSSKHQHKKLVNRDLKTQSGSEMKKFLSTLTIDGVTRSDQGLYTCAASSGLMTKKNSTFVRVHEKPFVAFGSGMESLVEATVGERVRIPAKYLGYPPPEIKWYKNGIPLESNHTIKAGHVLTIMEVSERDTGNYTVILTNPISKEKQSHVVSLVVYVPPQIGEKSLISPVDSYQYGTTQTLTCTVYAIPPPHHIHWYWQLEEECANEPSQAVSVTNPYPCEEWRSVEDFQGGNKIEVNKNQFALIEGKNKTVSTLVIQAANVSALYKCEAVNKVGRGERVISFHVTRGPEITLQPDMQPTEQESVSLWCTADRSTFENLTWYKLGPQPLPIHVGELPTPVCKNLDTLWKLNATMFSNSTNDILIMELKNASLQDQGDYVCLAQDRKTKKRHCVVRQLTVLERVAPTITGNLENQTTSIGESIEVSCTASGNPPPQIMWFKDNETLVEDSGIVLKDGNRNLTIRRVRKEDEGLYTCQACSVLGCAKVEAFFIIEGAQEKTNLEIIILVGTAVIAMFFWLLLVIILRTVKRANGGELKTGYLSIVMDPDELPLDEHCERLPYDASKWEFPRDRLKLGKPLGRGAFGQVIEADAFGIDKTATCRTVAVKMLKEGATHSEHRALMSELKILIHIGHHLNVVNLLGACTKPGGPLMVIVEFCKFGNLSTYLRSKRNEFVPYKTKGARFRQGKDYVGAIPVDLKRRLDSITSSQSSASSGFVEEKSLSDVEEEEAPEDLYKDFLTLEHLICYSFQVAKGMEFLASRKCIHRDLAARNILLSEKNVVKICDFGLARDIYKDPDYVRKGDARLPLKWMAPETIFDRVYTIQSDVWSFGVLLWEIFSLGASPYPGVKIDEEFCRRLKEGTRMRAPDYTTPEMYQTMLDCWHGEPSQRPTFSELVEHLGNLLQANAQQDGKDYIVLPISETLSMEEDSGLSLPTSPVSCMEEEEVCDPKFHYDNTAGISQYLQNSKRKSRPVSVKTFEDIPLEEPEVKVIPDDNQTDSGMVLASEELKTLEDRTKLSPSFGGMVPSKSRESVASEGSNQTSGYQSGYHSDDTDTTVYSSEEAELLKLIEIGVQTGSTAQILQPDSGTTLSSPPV

SMILES: CN1CCN(c2cnc3cc(C(F)(F)F)cc(-c4ccccc4)c3n2)CC1
- Activity [1]: < 30%
- Activity [2]: < 30%
